Measurements taken from patent US20240398781A1, “SPIROCYCLIC CYCLIC MODULATORS OF CHOLESTEROL BIOSYNTHESIS AND THEIR USE FOR PROMOTING REMYELINATION” (GENENTECH, INC., priority 2021, published 2024).
pEC50: −log10 of the molar value. Like-named read-outs stand apart in the source and are kept apart here.

Legend:
[1] = test system: EpiSC-derived OPCs; assay: In vitro phenotypic screening of OPCs (MBP staining, high-content imaging); type: cell-based, mouse; conditions: percentage of MBP+ oligodendrocytes, 3 days, 0.5 nM to 1000 nM, read-out: OPC EC50
Summary of the method: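 EpiSC-derived mouse OPCs seeded at 150,000/cm^2 on laminin in N2B27 without growth factors, treated 3 days at 37° C. with compound (8 points, 1000 nM to 0.5 nM). Fixed cells stained for MBP and DAPI and imaged; percentage of MBP+ oligodendrocytes fitted by Hill equation for EC50.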

[2] = test system: EBP (zymostenol accumulation in EpiSC-derived OPCs); assay: GC/MS-based sterol profiling, zymostenol accumulation in OPCs; type: cell-based, mouse; conditions: read-out: Zymostenol GCMS EC50
Summary of the method: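 EpiSC-derived OPCs (100,000/well) were treated 24 h in N2B27 without growth factors. Sterols were TMS-derivatized and analysed by GC/MS full-scan EI, quantified against cholesterol-d7. Zymostenol was normalized to the level after 24 h with 100 nM positive control reference.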

[3] = Mus musculus, 24 h, EpiSC-derived OPCs, 24 hr treatment, 8 doses from 0.15 nM to 333 nM
[4] = EpiSC-derived OPCs, 24 hr treatment, 8 doses from 0.15 nM to 333 nM

| SMILES | pEC50 ([1]; Mus musculus, 72 h) | pEC50 [2, 3] | pEC50 [1] | pEC50 [2, 4] | pEC50 ([2]; Mus musculus, 24 h) |
| --- | --- | --- | --- | --- | --- |
| CC(C)n1nc(C(F)(F)F)cc1[C@H]1CC[C@H](N2CCC3(C2)CS(=O)(=O)C3)C1 (single isomer, unassigned) [10A*] | 7.74 | 8.55 | – | – | – |
| CC(C)n1nc(C(F)(F)F)cc1[C@H]1CC[C@@H](N2CCC3(C2)CS(=O)(=O)C3)C1 (single isomer, unassigned) [10B*] | 7.70 | 8.54 | – | – | – |
| O=S1(=O)CC2(CCN(C3CC[C@H](c4ccc(C(F)(F)F)nc4)C3)C2)C1 (single isomer, unassigned) [11D*] | 6.55 | 7.36 | – | – | – |
| CC(C)n1nc(-c2cncc(C(F)(F)F)c2)cc1[C@@H]1CC[C@H](N2CCC3(C2)CS(=O)(=O)C3)C1 (single isomer, unassigned) [13B*] | 8.89 | 9.05 | – | – | – |
| CC(C)n1nc(-c2cncc(C(F)(F)F)c2)cc1[C@H]1CC[C@H](N2CCC3(C2)CS(=O)(=O)C3)C1 (single isomer, unassigned) [13D*] | 8.66 | 8.92 | – | – | – |
| CC(C)n1nc(-c2ccc(C(F)(F)F)nc2)nc1[C@H]1CC[C@H](N2CCC3(C2)CS(=O)(=O)C3)C1 (single isomer, unassigned) [17B*] | 7.66 | 8.40 | – | – | – |
| CC(C)n1nc(-c2ccc(C(F)(F)F)nc2)nc1[C@H]1CC[C@@H](N2CCC3(C2)CS(=O)(=O)C3)C1 (single isomer, unassigned) [17D*] | 7.85 | 8.46 | – | – | – |
| CC(C)n1nc(C2CC2)nc1[C@@H]1CC[C@H](N2CCC3(C2)CS(=O)(=O)C3)C1 (single isomer, unassigned) [18A*] | 6.41 | – | – | – | 7.14 |
| CC(C)n1nc(C2CC2)nc1[C@H]1CC[C@H](N2CCC3(C2)CS(=O)(=O)C3)C1 (single isomer, unassigned) [18B*, 6-(3-(3-cyclopropyl-1-isopropyl-1H-1,2,4-triazol-5-yl)cyclopentyl)-2-thia-6-azaspiro[3.4]octane 2,2-dioxide] | 6.41 | 6.70 | – | – | – |
| CC(C)n1nc(C2CC2)nc1[C@@H]1CC[C@@H](N2CCC3(C2)CS(=O)(=O)C3)C1 (single isomer, unassigned) [18C*] | 6.62 | 7.27 | – | – | – |
| CC(C)n1nc(C2CC2)nc1[C@H]1CC[C@@H](N2CCC3(C2)CS(=O)(=O)C3)C1 (single isomer, unassigned) [18D*, 6-(3-(3-cyclopropyl-1-isopropyl-1H-1,2,4-triazol-5-yl)cyclopentyl)-2-thia-6-azaspiro[3.4]octane 2,2-dioxide] | 6.37 | 6.92 | – | – | – |
| CC(C)n1cc(C(F)(F)F)nc1[C@@H]1CC[C@@H](N2CCC3(C2)CS(=O)(=O)C3)C1 (single isomer, unassigned) [20B*] | 6.47 | – | – | – | 7.72 |
| Cn1nc(C(F)(F)F)cc1[C@H]1CC[C@H](N2CC[C@]3(CCS(=O)(=O)C3)C2)CC1 (single isomer, unassigned) [27B*] | – | 7.66 | 6.89 | – | – |
| Cn1nc(C(F)(F)F)cc1[C@H]1CC[C@@H](N2CC[C@]3(CCS(=O)(=O)C3)C2)CC1 (single isomer, unassigned) [38A*] | 6.70 | 7.31 | – | – | – |
| O=S1(=O)CC2(CCN([C@H]3CC[C@@H](c4ccc(C(F)(F)F)nc4)C3)C2)C1 (single isomer, unassigned) [Compound 11A, (Cis)-6-(3-(6-(Trifluoromethyl)pyridin-3-yl)cyclopentyl)-2-thia-6-azaspiro[3.4]octane 2,2-dioxide] | 6.80 | 7.52 | – | – | – |
| O=S1(=O)CC2(CCN([C@@H]3CO[C@@H](c4ccc(C(F)(F)F)cc4)C3)C2)C1 (stereo in doubt) [19B*, 6-((3S,5R)-5-(4-(trifluoromethyl)phenyl)tetrahydrofuran-3-yl)-2-thia-6-azaspiro[3.4]octane 2,2-dioxide] | 7.31 | 8.00 | – | – | – |

Now from value to compound, other results behind:

| pEC50 ([1]; Mus musculus, 72 h) | pEC50 [2, 3] | pEC50 [1] | pEC50 [2, 4] | SMILES | pEC50 ([2]; Mus musculus, 24 h) |
| --- | --- | --- | --- | --- | --- |
| 7.07 | 8.00 | – | – | O=S1(=O)CC2(CCN([C@H]3CCN(c4ccc(C(F)(F)F)nc4)C3)C2)C1 (single isomer, unassigned) [9A*] | – |
| < 6.00 | 6.40 | – | – | O=S1(=O)CC2(CCN([C@@H]3CCN(c4ccc(C(F)(F)F)nc4)C3)C2)C1 (single isomer, unassigned) [9B*] | – |
| 7.96 | 8.52 | – | – | CC(C)n1nc(C(F)(F)F)cc1[C@@H]1CC[C@H](N2CCC3(C2)CS(=O)(=O)C3)C1 (single isomer, unassigned) [10C*] | – |
| 7.62 | 8.39 | – | – | O=S1(=O)CC2(CCN([C@@H]3CC[C@H](c4ccc(C(F)(F)F)nc4)C3)C2)C1 (single isomer, unassigned) [11C*] | – |
| 8.89 | 9.04 | – | – | CC(C)n1nc(-c2cncc(C(F)(F)F)c2)cc1[C@H]1CC[C@@H](N2CCC3(C2)CS(=O)(=O)C3)C1 (single isomer, unassigned) [13A*] | – |
| 7.68 | 8.39 | – | – | CC(C)n1nc(-c2cncc(C(F)(F)F)c2)cc1[C@@H]1CC[C@@H](N2CCC3(C2)CS(=O)(=O)C3)C1 (single isomer, unassigned) [13C*] | – |
| < 6.00 | 6.62 | – | – | CC(C)n1cc(C(F)(F)F)nc1[C@H]1CC[C@H](N2CCC3(C2)CS(=O)(=O)C3)C1 (single isomer, unassigned) [20A*] | – |
| 6.18 | 6.51 | – | – | CC(C)n1cc(C(F)(F)F)nc1[C@H]1CC[C@@H](N2CCC3(C2)CS(=O)(=O)C3)C1 (single isomer, unassigned) [20C*] | – |
| 6.59 | 7.42 | – | – | CC(C)n1cc(C(F)(F)F)nc1[C@@H]1CC[C@H](N2CCC3(C2)CS(=O)(=O)C3)C1 (single isomer, unassigned) [20D*] | – |
| 8.02 | 8.70 | – | – | O=S1(=O)CC2(CCN([C@@H]3CCCN(c4ccc(C(F)(F)F)cc4)C3)C2)C1 (single isomer, unassigned) [22A*] | – |
| 6.96 | 7.46 | – | – | O=S1(=O)CC2(CCN([C@H]3CCCN(c4ccc(C(F)(F)F)cc4)C3)C2)C1 (single isomer, unassigned) [22B*] | – |
| 7.74 | 8.40 | – | – | Cn1nc(C(F)(F)F)cc1[C@H]1CC[C@H](N2CCC[C@@]3(CCS(=O)(=O)C3)C2)CC1 (single isomer, unassigned) [26A*] | – |
| 6.89 | 7.42 | – | – | Cn1nc(C(F)(F)F)cc1[C@H]1CC[C@H](N2CCC[C@]3(CCS(=O)(=O)C3)C2)CC1 (single isomer, unassigned) [26B*] | – |
| – | 7.59 | 7.28 | – | Cn1nc(C(F)(F)F)cc1[C@H]1CC[C@H](N2CC[C@@]3(CCS(=O)(=O)C3)C2)CC1 (single isomer, unassigned) [27A*] | – |
| 6.40 | 7.22 | – | – | Cn1nc(C(F)(F)F)cc1[C@H]1CC[C@@H](N2CC[C@@]3(CCS(=O)(=O)C3)C2)CC1 (single isomer, unassigned) [38B*] | – |
| – | – | 7.30 | 7.70 | Cn1nc(C(F)(F)F)cc1[C@H]1CC[C@H](N2CC[C@]3(CCS(=O)(=O)C3)C2)CC1 (single isomer, unassigned) [38C*] | – |
| – | – | 6.70 | 7.40 | Cn1nc(C(F)(F)F)cc1[C@H]1CC[C@H](N2CC[C@@]3(CCS(=O)(=O)C3)C2)CC1 (single isomer, unassigned) [38D*] | – |
| 7.46 | 8.14 | – | – | O=S1(=O)CC2(CCN([C@@H]3CC[C@@H](c4ccc(C(F)(F)F)nc4)C3)C2)C1 (single isomer, unassigned) [Compound 11B, (Trans)-6-(3-(6-(Trifluoromethyl)pyridin-3-yl)cyclopentyl)-2-thia-6-azaspiro[3.4]octane 2,2-dioxide] | – |
| 6.85 | 7.64 | – | – | O=S1(=O)CC2(CCN([C@H]3CO[C@@H](c4ccc(C(F)(F)F)cc4)C3)C2)C1 (stereo in doubt) [19A*, 6-((3R,5R)-5-(4-(Trifluoromethyl)phenyl)tetrahydrofuran-3-yl)-2-thia-6-azaspiro[3.4]octane 2,2-dioxide] | – |
| 6.57 | 6.96 | – | – | O=S1(=O)CC2(CCN([C@@H]3CO[C@H](c4ccc(C(F)(F)F)cc4)C3)C2)C1 (stereo in doubt) [19C*, 6-((3S,5S)-5-(4-(Trifluoromethyl)phenyl)tetrahydrofuran-3-yl)-2-thia-6-azaspiro[3.4]octane 2,2-dioxide] | – |
| 6.80 | 6.96 | – | – | O=S1(=O)CC2(CCN([C@H]3CO[C@H](c4ccc(C(F)(F)F)cc4)C3)C2)C1 (stereo in doubt) [19D*, 6-((3R,5S)-5-(4-(trifluoromethyl)phenyl)tetrahydrofuran-3-yl)-2-thia-6-azaspiro[3.4]octane 2,2-dioxide] | – |
| 7.14 | 8.07 | – | – | CCn1nc(-c2ccc(C(F)(F)F)nc2)nc1[C@H]1CC[C@H](N2CCC3(C2)CS(=O)(=O)C3)CC1 [36A*, 6-((1r,4r)-4-(1-Ethyl-3-(6-(trifluoromethyl)pyridin-3-yl)-1H-1,2,4-triazol-5-yl)cyclohexyl)-2-thia-6-azaspiro[3.4]octane 2,2-dioxide] | – |
| 7.14 | 7.64 | – | – | CCn1nc(-c2ccc(C(F)(F)F)nc2)nc1[C@H]1CC[C@@H](N2CCC3(C2)CS(=O)(=O)C3)CC1 [36B*, 6-((1s,4s)-4-(1-ethyl-3-(6-(trifluoromethyl)pyridin-3-yl)-1H-1,2,4-triazol-5-yl)cyclohexyl)-2-thia-6-azaspiro[3.4]octane 2,2-dioxide] | – |
